Results on six molecules are retold here after patent US20240269139A1, “COMPOUNDS FOR TARGETED PROTEIN DEGRADATION OF KINASES” (DANA-FARBER CANCER INSTITUTE, INC., priority 2020, published 2024).

Each structure is given as a SMILES string. Where two headings read alike, the source gives them in different places.

Holding throughout (format): cell-based
The subject of test [1] is protein kinases (human kinome). The conditions noted are these: for logFC PDK3: PDK3 (Q15120-2).
In test [2] the target is protein kinases (human kinome) (Homo sapiens, UniProt P30291). Particulars: for logFC of WEE1: WEE1 P30291-1.
protein kinases (human kinome) (Homo sapiens, UniProt P30291), sequence (P30291 whole entry): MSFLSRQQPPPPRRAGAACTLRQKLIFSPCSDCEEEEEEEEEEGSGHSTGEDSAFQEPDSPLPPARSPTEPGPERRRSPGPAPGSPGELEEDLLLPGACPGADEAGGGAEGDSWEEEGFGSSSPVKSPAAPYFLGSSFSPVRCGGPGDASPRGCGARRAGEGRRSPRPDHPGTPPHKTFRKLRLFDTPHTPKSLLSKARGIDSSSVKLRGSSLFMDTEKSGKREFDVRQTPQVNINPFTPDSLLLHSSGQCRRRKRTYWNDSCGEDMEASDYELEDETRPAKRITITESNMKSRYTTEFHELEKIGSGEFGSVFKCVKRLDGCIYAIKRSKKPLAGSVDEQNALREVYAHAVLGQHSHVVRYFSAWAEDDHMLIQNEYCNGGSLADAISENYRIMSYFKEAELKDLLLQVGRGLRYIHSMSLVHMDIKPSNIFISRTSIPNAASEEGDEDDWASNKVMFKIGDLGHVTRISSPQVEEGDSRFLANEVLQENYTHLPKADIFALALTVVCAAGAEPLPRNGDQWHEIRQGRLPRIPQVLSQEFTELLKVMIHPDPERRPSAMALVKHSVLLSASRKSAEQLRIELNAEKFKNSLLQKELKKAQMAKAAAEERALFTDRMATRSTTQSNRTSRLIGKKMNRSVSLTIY
For test [3], the target named is protein kinases (human kinome) (Homo sapiens, UniProt P11802).
protein kinases (human kinome) (Homo sapiens, UniProt P11802), sequence (P11802 whole entry): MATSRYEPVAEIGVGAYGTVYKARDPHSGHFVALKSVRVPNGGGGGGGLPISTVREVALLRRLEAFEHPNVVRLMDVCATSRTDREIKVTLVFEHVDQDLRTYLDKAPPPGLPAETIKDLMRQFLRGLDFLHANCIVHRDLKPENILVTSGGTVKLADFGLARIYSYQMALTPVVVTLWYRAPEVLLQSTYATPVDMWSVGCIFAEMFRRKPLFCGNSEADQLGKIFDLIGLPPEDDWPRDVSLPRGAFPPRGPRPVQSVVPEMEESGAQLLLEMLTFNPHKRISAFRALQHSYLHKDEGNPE
The target of test [4] is protein kinases (human kinome) (Homo sapiens, UniProt P16591).
protein kinases (human kinome) (Homo sapiens, UniProt P16591), sequence (P16591 whole entry): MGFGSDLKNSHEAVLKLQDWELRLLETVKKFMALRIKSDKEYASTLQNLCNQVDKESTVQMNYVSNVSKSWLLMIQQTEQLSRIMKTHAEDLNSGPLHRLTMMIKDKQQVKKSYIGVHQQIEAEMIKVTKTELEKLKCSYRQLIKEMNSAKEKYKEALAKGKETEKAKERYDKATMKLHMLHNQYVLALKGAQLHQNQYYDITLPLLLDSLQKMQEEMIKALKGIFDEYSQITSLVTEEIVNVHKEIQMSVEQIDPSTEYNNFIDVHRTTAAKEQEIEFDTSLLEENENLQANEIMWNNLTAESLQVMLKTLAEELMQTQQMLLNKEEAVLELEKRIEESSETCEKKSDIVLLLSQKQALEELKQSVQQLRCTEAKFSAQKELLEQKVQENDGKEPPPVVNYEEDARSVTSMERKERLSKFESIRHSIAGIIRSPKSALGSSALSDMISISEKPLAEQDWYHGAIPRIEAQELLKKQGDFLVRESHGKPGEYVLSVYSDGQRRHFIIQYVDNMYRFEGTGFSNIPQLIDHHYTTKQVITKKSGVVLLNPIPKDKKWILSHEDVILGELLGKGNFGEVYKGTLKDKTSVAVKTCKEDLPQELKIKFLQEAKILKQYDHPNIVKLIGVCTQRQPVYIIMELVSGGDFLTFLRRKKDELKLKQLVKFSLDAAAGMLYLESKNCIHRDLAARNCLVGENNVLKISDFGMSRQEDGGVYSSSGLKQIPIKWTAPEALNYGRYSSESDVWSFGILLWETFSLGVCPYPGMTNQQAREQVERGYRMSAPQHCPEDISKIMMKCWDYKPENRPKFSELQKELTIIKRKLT
For test [5], the target named is protein kinases (human kinome) (Homo sapiens, UniProt Q2M2I8). The conditions noted are these: experiment wp195.
protein kinases (human kinome) (Homo sapiens, UniProt Q2M2I8), sequence (Q2M2I8 whole entry): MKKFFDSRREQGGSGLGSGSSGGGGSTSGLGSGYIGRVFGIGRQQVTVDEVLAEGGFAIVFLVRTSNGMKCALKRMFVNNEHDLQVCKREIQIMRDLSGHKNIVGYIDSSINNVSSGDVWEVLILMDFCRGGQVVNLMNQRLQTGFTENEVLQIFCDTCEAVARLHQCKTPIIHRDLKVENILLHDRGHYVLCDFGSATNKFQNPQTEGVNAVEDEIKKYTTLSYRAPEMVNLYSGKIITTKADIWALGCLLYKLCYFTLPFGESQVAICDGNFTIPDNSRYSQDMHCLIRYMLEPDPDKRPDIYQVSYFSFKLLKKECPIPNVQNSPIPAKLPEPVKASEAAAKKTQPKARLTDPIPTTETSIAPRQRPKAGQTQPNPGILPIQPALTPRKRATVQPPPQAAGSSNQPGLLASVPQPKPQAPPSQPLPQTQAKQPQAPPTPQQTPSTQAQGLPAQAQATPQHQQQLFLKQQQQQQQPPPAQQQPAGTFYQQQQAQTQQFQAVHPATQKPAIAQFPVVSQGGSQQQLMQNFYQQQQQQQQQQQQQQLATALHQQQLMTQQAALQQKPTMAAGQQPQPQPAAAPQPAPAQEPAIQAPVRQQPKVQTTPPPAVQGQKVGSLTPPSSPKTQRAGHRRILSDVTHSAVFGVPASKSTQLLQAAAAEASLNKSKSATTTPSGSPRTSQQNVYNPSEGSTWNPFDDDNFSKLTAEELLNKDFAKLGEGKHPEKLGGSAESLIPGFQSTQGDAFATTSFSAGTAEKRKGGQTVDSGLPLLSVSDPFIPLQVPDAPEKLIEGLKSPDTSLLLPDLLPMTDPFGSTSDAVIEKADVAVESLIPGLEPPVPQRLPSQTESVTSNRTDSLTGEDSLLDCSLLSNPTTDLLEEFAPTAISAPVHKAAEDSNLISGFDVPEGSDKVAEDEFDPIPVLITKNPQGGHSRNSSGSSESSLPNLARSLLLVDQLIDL
The mark [6] stands for this setting: ACAD10 (Q6JQN1-5), experiment wp084.

Consider `C=CCn1c(=O)c2cnc(Nc3ccc(N4CCN(CCCNc5cccc6c5C(=O)N(C5CCC(=O)NC5=O)C6=O)CC4)cc3)nc2n1-c1cccc(C(C)(C)O)n1` (centres unmarked) [ZNL.02.096], for which the logFC in test [1] (GK P32189-3, experiment wp056) was −0.3867. Further, the “logFC PDK3” value in test [1] (experiment wp056) was −0.3528. In addition, in test [1] (experiment wp056), the “logFC PDK3 (Q15120-2)” value is recorded as −0.3528. Further, the “logFC of WEE1” value in test [2] (experiment wp081) is listed as −1.97; in test [2] (experiment wp106, 2 hr), −2.525; in test [2] (experiment wp106, 4 hr) it was −2.764; in test [2] (experiment wp118) it was −2.75. The “logFC WEE1 (P30291-1)” value in test [2] (experiment wp056) was −2.409; in test [2] (experiment wp081) it was −1.97; in test [2] (experiment wp106, 2 hr), −2.525; in test [2] (experiment wp106, 4 hr), −2.764; in test [2] (experiment wp118), −2.75.

`Cc1ccc(NC(=O)c2cccc(C(F)(F)F)c2)cc1N1Cc2cnc(Nc3ccc(N4CCN(CCCCCCOc5cccc6c5C(=O)N(C5CCC(=O)NC5=O)C6=O)CC4)nc3)nc2N(C)C1=O` (centres unmarked) [DB0663]: in test [1] (Accession P12931-2, experiment wp045), the “logFC of SRC” value is recorded as −0.4247. Besides, the “logFC MAP3K20 (Q9NYL2-2)” value in test [1] (Experiment wp046) and in test [1] (experiment wp045) was −0.8012 each time. Further, the “logFC LCK” value in test [1] (LCK, accession P06239-3, experiment wp045, direction of change down) was −0.5823. Further, the logFC in test [1] (SRC (P12931-2) protein abundance, degrader vs DMSO, down) is reported as −0.4247; in test [1] (TNK2 (Q07912-3), experiment wp045, direction down), −0.9271. In addition, the “logFC TNK2” value in test [1] (TNK2 Q07912-3, experiment wp045) is given as −0.9271. Also, in test [1] (as stated for the structure in the embodiments), the “kinases the bifunctional compound degrades” value was “CDK4, BLK, FER, LIMK2, GAK, CSK, SIK2, LCK, PTK2B, SRC, ABL2, MAPK14,a MAPK9, MAP4K2, MKNK2, MAP3K20, and TNK2”. Moreover, the “logFC LCK (P06239-3)” value in test [1] (experiment wp045, direction of change down) is recorded as −0.5823. In addition, the Kinase hits result in test [1] (kinases significantly downregulated vs DMSO (fold change cutoff −1.25, P-value<0.01), ≤8 h, 0.1-5 μM degrader, 7 cell lines) was “CDK4, BLK, FER, LIMK2, GAK, CSK, SIK2, LCK, PTK2B, SRC, ABL2, MAPK14.a MAPK9, MAP4K2, MKNK2, MAP3K20, TNK2”. Besides, the “Total no. kinase hits” value in test [1] (number of degraded kinases per library compound) is listed as 17. Moreover, the “logFC CDK4 (P11802)” value in test [3] (experiment wp045) was −0.6823. Also, in test [4] (Experiment wp045, down), the “logFC of FER (P16591-1)” value is listed as −0.9581. Moreover, the “logFC of FER” value in test [4] (FER P16591-1, experiment wp045) is −0.9581.

In the case of `Cc1cnc(Nc2ccc(N3CCN(CCCCCCC(=O)N[C@H](C(=O)N4C[C@H](O)C[C@H]4C(=O)N[C@@H](C)c4ccc(-c5scnc5C)cc4)C(C)(C)C)CC3)cc2)nc1Nc1cccc(S(=O)(=O)NC(C)(C)C)c1` [JWG.123], the “logFC of WEE1” value in test [2] (experiment wp195) is given as −1.368. For the same molecule, the “logFC of WEE1 (P30291-1)” value in test [2] (experiment wp195, direction of change down) was −1.368. Besides, the “logFC AAK1” value in test [5] (AAK1 (Q2M218-1), down) is −1.091; in test [5] (AAK1, accession Q2M218-1, direction of change down), −1.091.

As to `CN(C)C(=O)c1cc2cnc(Nc3ccc(N4CCN(CCCCNC(=O)COc5cccc6c5C(=O)N(C5CCC(=O)NC5=O)C6=O)CC4)cn3)nc2n1C1CCCC1` (centres unmarked) [BSJ.04.132], the logFC in test [1] (setting [6]) is −0.7484. The molecule also had a logFC in test [1] (GK P32189-3, experiment wp084) of −0.383. For the same molecule, in test [1] (experiment wp084), the “logFC PDK3” value is −0.7397 and the “logFC PDK3 (Q15120-2)” value is reported as −0.7397. Also, in test [3] (experiment wp084), the “logFC CDK4 (P11802)” value is on record as −0.9046.

Molecule `CC(=O)c1c(C)c2cnc(Nc3ccc(N4CCN(CCOCCOCCOCCNC(=O)COc5cccc6c5C(=O)N(C5CCC(=O)NC5=O)C6=O)CC4)cn3)nc2n(C2CCCC2)c1=O` (centres unmarked) [BSJ.03.123] yielded a logFC in test [1] (setting [6]) of −0.5275. For the same molecule, in test [1] (GK P32189-3, experiment wp084), the logFC is on record as −0.4109. Further, in test [1] (experiment wp084), the “logFC PDK3” value is reported as −0.5908 and the “logFC PDK3 (Q15120-2)” value is reported as −0.5908. Besides, the “logFC HK1” value in test [1] (protein HK1 (P19367-3), experiment wp084, down) was −0.3484. For the same molecule, the “logFC CDK4 (P11802)” value in test [3] (experiment wp084) is given as −0.9496. Moreover, in test [2] (experiment wp084), the “logFC of WEE1” value was −0.3883 and the “logFC WEE1 (P30291-1)” value is reported as −0.3883.

`C[C@@H]1C[C@@H](O)c2ncnc(N3CCN(C(=O)[C@H](CNCCCCCCCCCCc4cccc5c4C(=O)N(C4CCC(=O)NC4=O)C5=O)c4ccc(Cl)cc4)CC3)c21` (some centres unmarked) [INY.03.041.01]: the “logFC CDK4 (P11802)” value in test [3] (experiment wp118) was −0.4019.
